Assay results: patent publication US20120101099A1, “HISTONE DEACETYLASE INHIBITORS” (ANTHEM BIOSCIENCES PRIVATE LIMITED, priority 2009, published 2012)

Key:
[1] = tested on: human HDAC (Hela cells nuclear extract); experiment: HDAC activity screening, Hela nuclear extract, Boc-Lys(Ac)-AMC substrate; format: biochemical; conditions: Hela nuclear extract; for HDAC % Inhibition (1 μM): 1 μM compound; for HDAC % Inhibition (10 μM): 10 μM compound; for IC50: read-out: IC50 (50% HDAC inhibitory concentration), Table 2
Protocol: To study the human HDAC inhibition the in-house 96 well plate assay have been established using fluorescent substrate (Boc-Lys (Ac)-AMC Substrate). Hela cells nuclear extract have been used as enzyme source.
Assay was performed in 96-well black microplate and total volume of the assay was 100 μL. Hela nuclear extract was diluted HDAC assay buffer (final concentration of 3.0 μg/mL). Enzyme mixture was made of 10 μL of diluted enzyme and 30 μL of HDAC buffer. 40 μl of enzyme mixture followed by 10 μL of test compound (final concentration from 0.01 to 10 μM) or vehicle (control) was added to each well. The plate was pre-incubated at 37° C. for 10 minutes. The HDAC reaction was started by adding 50 μl of HDAC substrate Boc-Lys (Ac)-AMC (Anaspec, Inc Fremont, Calif., USA). The plate was incubated at 37° C. for 45 minutes. The reaction was stopped by adding 50 μL of Trypsin stop solution and plate further incubated at 37° C. for 15 minutes. Measuring the fluorescence at excitation wavelength of 360 nm and emission wavelength of 460 nm monitored the release of AMC. Buffer alone and substrate alone served as blank.

PC-3 = experiment: Cell proliferation assay (MTT); format: cell-based; conditions: Homo sapiens, PC-3; Table 1; MTT, 48 hours; read-out: Cell growth inhibition (GI50 in μM) PC-3
Protocol: (§1) Cells were seeded in a 96-well cell culture plates at a concentration of 10,000 cells per well and incubated at 37° C. in CO2 incubator.
(§2) Twenty-four hours later cells were treated with different concentrations (100, 10, 1, 0.1, and 0.01 μM) of compound dissolved in DMSO and incubated for 48 hours. For To measurement, 24 hours after seeding the cells, 20 μL of 3-(4.5-dimethyl-2- thiazolyl)-2,5-diphenyl-2H-tetrazolium (MTT) solution per well was added to the T0 plate and incubated for 3 hours at 37° C. in a CO2 incubator.
(§3) The plate containing cells and test compounds was treated similarly after 48 hours of incubation. After 3 hours of MTT addition, well contents were aspirated carefully followed by addition of 100 μL DMSO per well. Plates were agitated to ensure dissolution of the formazan crystals in DMSO and absorbance was read at 570 nm (A570). […] From the percentage growths a dose response curve was generated and GI50 values were interpolated from the growth curves.

PA-1 = experiment: Cell proliferation assay (MTT); format: cell-based; conditions: Homo sapiens, Table 1, MTT, 48 hours, read-out: Cell growth inhibition (GI50 in μM) PA-1
Protocol: as §1, §2, §3

HT-29 = experiment: Cell proliferation assay (MTT); format: cell-based; conditions: Homo sapiens, HT-29; Table 1; MTT, 48 hours; read-out: Cell growth inhibition (GI50 in μM) HT-29
Protocol: as §1, §2, §3

NCI-H460 = experiment: Cell proliferation assay (MTT); format: cell-based; conditions: Homo sapiens, Table 1, MTT, 48 hours, read-out: Cell growth inhibition (GI50 in μM) NCI H460
Protocol: as §1, §2, §3

A549 = experiment: Cell proliferation assay (MTT); format: cell-based; conditions: Homo sapiens, A549; Table 1; MTT, 48 hours; read-out: Cell growth inhibition (GI50 in μM) A549
Protocol: as §1, §2, §3

GI50 (PC-3) | GI50 (HT-29) | IC50 [1] | GI50 (A549) | Compound | HDAC % Inhibition (1 μM) [1] | HDAC % Inhibition (10 μM) [1] | GI50 (PA-1) | GI50 (NCI-H460)
3.4 ± 0.4 µM | 5.2 ± 3.5 µM |  |  | O=C(NO)c1ccc(Cn2cc(-c3ccc(F)cc3)nn2)cc1 [Example 3, 4-[4-(4-Fluoro-phenyl)-[1,2,3]triazol-1-ylmethyl]-N-hydroxy-benzamide] | 84% | 96% |  | 6.5 ± 4.2 µM
2.6 ± 1.2 µM | 1.4 ± 0.5 µM |  |  | COc1ccc(-c2cn(Cc3ccc(C(=O)NO)cc3)nn2)cc1 [Example 7, N-Hydroxy-4-[4-(4-methoxy-phenyl)-[1,2,3]triazol-1-ylmethyl]-benzamide] | 90% | 94% |  | 3.1 ± 1.7 µM
18.5 ± 10.2 µM |  | 25 nM | 3.2 ± 1.4 µM | CN(C)Cc1ccc(-c2cn(Cc3ccc(C(=O)NO)cc3)nn2)cc1 [Example 10, 4-[4-(4-Dimethylaminomethyl-phenyl)-[1,2,3]triazol-1-ylmethyl]-N-hydroxy-benzamide] | 96% | 100% | 0.1 ± 0.02 µM | 
 |  | 12.8 nM |  | O=C(NO)c1ccc(Cn2cc(-c3ccc(CCN4CCOCC4)cc3)nn2)cc1 [Example 12, N-Hydroxy-4-{4-[4-(2-morpholin-4-yl-ethyl)-phenyl]-[1,2,3]triazol-1-ylmethyl}-benzamide] |  |  |  | 
 |  | 7.33 nM |  | O=C(NO)c1ccc(Cn2cc(-c3ccc(CN4CCOCC4)cc3F)nn2)cc1 [Example 15, 4-[4-(2-Fluoro-4-morpholin-4-ylmethyl-phenyl)-[1,2,3]triazol-1-ylmethyl]-N-hydroxy-benzamide] |  |  |  | 
4.4 µM | 0.38 ± 0.12 µM |  |  | CN(C)c1ccc(-c2cn(Cc3ccc(/C=C/C(=O)NO)cc3)nn2)cc1 [Example 17] | 93% | 99% |  | 7.06 ± 6.98 µM
 | > 100 µM |  |  | O=C(/C=C/c1ccc(Cn2cc(-c3ccc(F)cc3)nn2)cc1)NO [Example 18] | 98% | 100% |  | 2.21 µM
 | 0.2 µM |  |  | O=C(/C=C/c1ccc(Cn2cc(-c3ccccc3)nn2)cc1)NO [Example 19] | 98% | 101% |  | 3.38 µM
12.7 ± 5.6 µM |  | 19 nM | 2.9 ± 1.8 µM | O=C(/C=C/c1ccc(Cn2cc(-c3ccc(CN4CCOCC4)cc3)nn2)cc1)NO [Example 20] | 96% | 100% | 0.16 ± 0.02 µM | 
12.2 µM | 0.2 µM |  |  | CN(C)c1ccc(-c2cn(Cc3cccc(/C=C/C(=O)NO)c3)nn2)cc1 [Example 23, (E)-3-{3-[4-(4-Dimethylamino-phenyl)-[1,2,3]triazol-1-ylmethyl]-phenyl}-N-hydroxy-acrylamide] | 96% | 99% |  | 0.3 µM

More lines, now with the values behind:

Compound | GI50 (PC-3) | GI50 (HT-29) | IC50 [1] | GI50 (A549) | HDAC % Inhibition (1 μM) [1] | HDAC % Inhibition (10 μM) [1] | GI50 (PA-1) | GI50 (NCI-H460)
CN(C)c1ccc(-c2cn(Cc3ccc(C(=O)NO)cc3)nn2)cc1 [Example 1] | 2.4 ± 2.5 µM | 0.9 ± 0.8 µM |  |  | 92% | 94% | 0.01 µM | 1 ± 0.2 µM
O=C(NO)c1ccc(Cn2cc(-c3ccccc3)nn2)cc1 [Example 2, N-Hydroxy-4-(4-phenyl-[1,2,3]triazol-1-ylmethyl)-benzamide] | 1.7 ± 1.1 µM | 1.9 ± 1.8 µM |  |  | 98% | 100% | 0.11 µM | 2.6 ± 2 µM
O=C(NO)c1ccc(Cn2cc(-c3ccccc3F)nn2)cc1 [Example 4, 4-[4-(2-Fluoro-phenyl)-[1,2,3]triazol-1-ylmethyl]-N-hydroxy-benzamide] | 4.6 ± 1.6 µM | 2.4 ± 0.5 µM |  |  | 88% | 94% |  | 3.2 ± 1.1 µM
O=C(NO)c1ccc(Cn2cc(-c3cccnc3)nn2)cc1 [Example 5, N-Hydroxy-4-(4-pyridin-3-yl-[1,2,3]triazol-1-ylmethyl)-benzamide] | 9.2 ± 9.5 µM | 13.3 ± 2.9 µM |  |  | 68% | 88% |  | 19 ± 1 µM
O=C(NO)c1ccc(Cn2cc(-c3ccc(-c4ccccc4)cc3)nn2)cc1 [Example 6, 4-(4-Biphenyl-4-yl-[1,2,3]triazol-1-ylmethyl)-N-hydroxy-benzamide] | > 100 µM | 16.3 µM |  |  | 75% | 87% |  | > 100 µM
O=C(NO)c1ccc(Cn2cc(-c3ccc(CN4CCCC4)cc3F)nn2)cc1 [Example 14, 4-[4-(2-Fluoro-4-pyrrolidin-l-ylmethyl-phenyl)-[1,2,3]triazol-1-ylmethyl]-N-hydroxy-benzamide] |  |  | 13.4 nM |  |  |  |  | 
O=C(/C=C/c1cccc(Cn2cc(-c3ccccc3)nn2)c1)NO [Example 22, (E)-N-Hydroxy-3-[3-(4-phenyl-[1,2, 3]triazol-1-ylmethyl)-phenyl]-acrylamide] | 0.6 ± 0.6 µM | 0.5 ± 0.4 µM |  |  | 92% | 96% | 0.01 µM | 0.1 ± 0.2 µM
O=C(/C=C/c1cccc(Cn2cc(-c3cccnc3)nn2)c1)NO [Example 24, N-Hydroxy-3-[3-(4-pyridin-3-yl-[1,2,3]triazol-1-ylmethyl)-phenyl]-acrylamide] |  | 0.48 µM |  |  | 96% | 101% |  | 10.7 µM
Cc1ccc(-c2cn(CS(=O)(=O)NCc3ccc(C(=O)NO)cc3)nn2)cc1 [Example 28] |  |  |  |  | 84% | 96% |  | 
O=C(NO)c1ccc(CNS(=O)(=O)Cn2cc(-c3ccc(F)cc3)nn2)cc1 [Example 29, 4-{[4-(4-Fluoro-phenyl)-[1,2,3]triazol-1-ylmethanesulfonylamino)-methyl}-N-hydroxy-benzamide] |  |  |  |  | 87% | 98% |  | 
O=C(NO)c1ccc(CNS(=O)(=O)Cn2cc(-c3ccccc3F)nn2)cc1 [Example 30, 4-{[4-(2-Fluoro-phenyl)-[1,2,3]triazol-1-ylmethanesulfonylamino]-methyl}-N-hydroxy-benzamide] |  |  |  |  | 92% | 99% |  | 
CN(C)c1ccc(-c2cn(CS(=O)(=O)NCc3ccc(C(=O)NO)cc3)nn2)cc1 [Example 31, 4-{[4-(4-Dimethylamino-phenyl)-[1,2,3]triazol-1-ylmethanesulfonylamino]-methyl}-N-hydroxy-benzamide] |  |  |  |  | 85% | 97% |  | 
COc1ccc(-c2cn(CS(=O)(=O)NCc3ccc(C(=O)NO)cc3)nn2)cc1 [Example 32, N-Hydroxy-4-{[4-(4-methoxy-phenyl)-[1,2,3]triazol-1-ylmethanesulfonylamino]-methyl}-benzamide] |  |  |  |  | 79% | 91% |  | 
O=C(NO)c1ccc(CNS(=O)(=O)Cn2cc(-c3cccnc3)nn2)cc1 [Example 33, N-Hydroxy-4-[(4-pyridin-3-yl-[1,2,3]triazol-1-ylmethanesulfonylamino)-methyl]-benzamide] |  |  |  |  | 63% | 92% |  | 
O=C(NO)c1ccc(CNS(=O)(=O)Cn2cc(-c3ccccc3)nn2)cc1 [Example 34] | 23.3 µM | 23.8 µM |  |  | 91% | 99% |  | 19.9 µM
O=C(/C=C/c1cccc(CNS(=O)(=O)Cn2cc(-c3ccccc3)nn2)c1)NO [Example 35, N-Hydroxy-3-{3-[(4-phenyl-[1,2,3]triazol-1-ylmethanesulfonylamino)-methyl]-phenyl}-acrylamide] | 47.7 µM | 19.3 µM |  |  | 67% | 92% |  | 20.4 µM
